# Assays:
# [1] = Oxygen radical absorbance capacity (ORAC); conditions: Trolox equivalent; compounds and Trolox 100 µM, AAPH 12 mM
# From the text: DPPH is a stable chromogen radical, which is widely used to assess the antioxidant activity of biological objects, in particular when searching for potential therapeutic agents used to maintain the redox balance in the body and treat pathologies associated with the action of free radicals. In turn, the oxygen radical absorbance capacity (ORAC) analysis is based on the removal by potential antioxidants of peroxyl radicals generated by AAPH (2,2’-axobis-2-methyl-propanimidamide, dihydrochloride), preventing the degradation of the fluorescein probe.
# The analysis of the absorption capacity of oxygen radicals was performed as described in [151], with some modifications. Trolox (Sigma Aldrich, St. Louis, MI, USA) was used as a standard antioxidant. The studied compounds were introduced into the holes of a 96-hole black tablet with a transparent bottom with Trolox (25 µL; the final concentration was 100 µM) and fluorescein (150 µL; the final concentration was 80 nM, Sigma Aldrich, St. Louis, MI, USA). The resulting mixture was shaken and incubated for 30 min at 37 °C. After a 30-min incubation period, a solution of 2,2’-azobis (2-amidinopropane) dihydrochloride (AAPH) (25 µL; final concentration of 12 mM, Sigma Aldrich, St. Louis, MI, USA) was quickly introduced into all wells of the tablet. The tablet was immediately placed in a multifunctional tablet analyzer Cytation™ 3 (BioTek Instruments, Inc., Winooski, VT, USA). The fluorescence intensity was recorded for 300 min at λex = 480 nm, λem = 520 nm with an interval of every 5 min. In the same experiment, calibration solutions for the reference antioxidant Trolox were used to confirm the validity of the use of this method (0, 6.25, 12.5, 25, 50 and 100 µM).
# [2] = tested on: 5xFAD transgenic mice brain mitochondria; test: Mitochondrial oxygen consumption rate of brain p2 fraction (Seahorse); type: in vivo; conditions: p2 fraction of 5xFAD mice treated for three weeks, vs 5xFAD
# From the text: (§1) As part of the in vivo testing of the biological activity of the leader compound, a transgenic mouse model with Alzheimer’s disease 5xFAD at the age of 13 months was used. This line expresses two human genes: APP (amyloid peptide precursor protein gene) with three types of mutations (Swedish (K670N, M671L), Florida (I716V) and London (V717I)), as well as the presenilin 1 gene with mutations (M146L and L286V) characteristic of this disease. Clinically healthy wildtype single-litter mice C57Bl6/j (n = 8) were used as a control group. Transgenic 5xFAD mice were randomly divided into two groups: (1) animals receiving intraperitoneal injections of hydroxamic acid 35a at a dose of 15 mg/kg (10% DMSO + NaCl) for three weeks—the 5xFAD + 35a group (n = 8) and (2) mice receiving an equivalent volume of solvent—the group 5xFAD (n = 8). […]
# The analysis of the work of the complexes of the electron transport chain of mitochondria was carried out on the mitochondrial p2 fraction obtained from brain samples of animals of experimental groups. Mitochondrial respiration was determined by the rate of oxygen consumption by organelles using the Seahorse XFe96 cell metabolism analyzer (Seahorse Bioscience, North Billerica, MA, USA), in full compliance with the protocol described in [169].
# [3] = tested on: 5xFAD transgenic mice brain; test: MDA level in brain samples (TBA test); type: in vivo; conditions: 21-day administration, 15 mg/kg; p = 0.001 vs 5xFAD
# From the text: As part of the in vivo testing of the biological activity of the leader compound, a transgenic mouse model with Alzheimer’s disease 5xFAD at the age of 13 months was used. This line expresses two human genes: APP (amyloid peptide precursor protein gene) with three types of mutations (Swedish (K670N, M671L), Florida (I716V) and London (V717I)), as well as the presenilin 1 gene with mutations (M146L and L286V) characteristic of this disease. Clinically healthy wildtype single-litter mice C57Bl6/j (n = 8) were used as a control group. […]
# To determine the level of malondialdehyde in the brain of animals, the samples were homogenized in a buffer solution and subjected to a centrifugation procedure at 12,000 rpm for 10 min at 4 °C, after which the infusion fluid was collected for subsequent analysis. Quantitative determination of the protein was carried out as described earlier.
# The content of malondialdehyde was determined using a modified TBA test. […] The optical density of the selected suprasetting fluid was measured using a multifunctional Cytation™3 flatbed analyzer (BioTek Instruments, Inc., Winooski, VT, USA) at λ = 540 nm.
# [4] = tested on: 5xFAD transgenic mice brain; test: Histology of β-amyloid deposits in brain samples (Congo Red); type: in vivo; conditions: 21-day administration; cortex, midbrain and hippocampus zone; vs 5xFAD
# From the text: as §1, with “8). All animals were kept in standard vivarium conditions at a temperature of 22 ± 1 °C and a humidity of 55% indoors with a 12-h light–dark cycle. The animals had no restrictions in the consumption of water and food.” for “8).”
# After cervical dislocation, the half of brain was dissected and fixed with Carnoy’s solution (ethanol–chloroform–glacial acetic acid, 6:3:1) for 17 h. […] The stained deposits were evaluated using a ZEISS LSM 880 laser scanning microscope (Carl Zeiss, Oberkochen, Germany) in the tile scan mode. […]
smiles,measurement,setting,value
"C=C(C)[C@@H]1CC=C(CNC(=O)/C=C/c2ccc(C(=O)NO)cc2)CC1 [Compound 35a, (S,E)-N-hydroxy-4-(3-oxo-3-(((4-(prop-1-en-2-yl)cyclohex-1-en-1-yl)methyl)amino)prop-1-en-1-yl)benzamide]",ORAC value (TE),[1],1.15 TE
same,"activity of complex IV (oxygen consumption rate), increase",[2]; p < 0.0001,177.57%
same,"activity of complex II (oxygen consumption rate), increase",[2]; p = 0.0025,57.30%
same,melting point,,179.9 °C
same,MDA level in brain (increase in 5xFAD mice),[3],reversed
same,number of β-amyloid aggregates in the brain,[4],decreased significantly
